Target: T1, serotonin 5-HT6 receptor subtype (Homo sapiens, UniProt P50406)
T1 construct: host or cells: CHO-Dukx-A2 cells, clone 50-7
Experiment: 5-HT6 binding affinity ([3H]-LSD SPA binding)
Conditions: read-out: 5-HT6 binding Ki

T1 sequence (P50406 whole entry): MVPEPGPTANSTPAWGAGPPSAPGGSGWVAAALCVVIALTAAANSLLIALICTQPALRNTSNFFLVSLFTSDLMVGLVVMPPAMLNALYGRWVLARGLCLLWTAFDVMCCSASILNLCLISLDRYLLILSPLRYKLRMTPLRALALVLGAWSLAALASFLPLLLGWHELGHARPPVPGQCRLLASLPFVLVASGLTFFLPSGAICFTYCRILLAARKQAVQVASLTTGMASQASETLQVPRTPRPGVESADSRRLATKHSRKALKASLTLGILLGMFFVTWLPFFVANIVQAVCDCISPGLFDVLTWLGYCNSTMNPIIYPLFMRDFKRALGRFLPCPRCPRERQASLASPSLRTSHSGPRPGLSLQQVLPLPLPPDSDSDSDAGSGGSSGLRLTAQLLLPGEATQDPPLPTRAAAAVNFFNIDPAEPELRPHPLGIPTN

SMILES: Cc1nc2c(N3CCNC(C)C3)cccc2n1S(=O)(=O)c1cccc(F)c1 (centres unmarked) [Example 94, 1-[(3-fluorophenyl)sulfonyl]-2-methyl-4-(3-methylpiperazin-1-yl)-1H-benzimidazole]
- Ki: 1.07 nM

SMILES: Cc1nc2c(N3C[C@@H](C)N[C@@H](C)C3)cccc2n1S(=O)(=O)c1cccc(F)c1 [Example 99, 4-[(3R,5S)-3,5-dimethylpiperazin-1-yl]-1-[(3-fluorophenyl)sulfonyl]-2-methyl-1H-benzimidazole]
- Ki: 12.9 nM

SMILES: C[C@@H]1CN(c2cccc3c2ncn3S(=O)(=O)c2cccc3ccccc23)CCN1 [Example 78, 4-[(3R)-3-methylpiperazin-1-yl]-1-(naphthalen-1-ylsulfonyl)-1H-benzimidazole]
- Ki: 1.28 nM

SMILES: CC1CN(c2cccc3c2ncn3S(=O)(=O)c2cccc3ccccc23)CCN1 (centres unmarked) [Example 129, 4-(3-methylpiperazin-1-yl)-1-(1-naphthylsulfonyl)-1H-benzimidazole]
- Ki: 0.051 nM

SMILES: CC(C)c1nc2c(N3CCNCC3)cccc2n1S(=O)(=O)c1cccc2c(Cl)cccc12 [Example 62, 1-[(5-chloronaphthalen-1-yl)sulfonyl]-2-(1-methylethyl)-4-piperazin-1-yl-1H-benzimidazole]
- Ki: 1.47 nM

SMILES: O=S(=O)(c1ccc(F)c(Cl)c1)n1cnc2c(N3CCNCC3)cccc21 [Example 29, 1-[(3-chloro-4-fluorophenyl)sulfonyl]-4-piperazin-1-yl-1H-benzimidazole]
- Ki: 11.7 nM

SMILES: O=S(=O)(c1ccccc1Cl)n1cnc2c(N3CCNCC3)cccc21 [Example 11, 1-[(2-chlorophenyl)sulfonyl]-4-piperazin-1-yl-1H-benzimidazole]
- Ki: 0.269 nM

SMILES: O=S(=O)(c1cc(F)ccc1F)n1cnc2c(N3CCNCC3)cccc21 [Example 84, 1-[(2,5-difluorophenyl)sulfonyl]-4-piperazin-1-yl-1H-benzimidazole]
- Ki: 0.855 nM

SMILES: O=S(=O)(c1ccccc1Cl)n1cnc2c(N3CCNCC3)cc(F)cc21 [Example 102, 1-[(2-chlorophenyl)sulfonyl]-6-fluoro-4-piperazin-1-yl-1H-benzimidazole]
- Ki: 0.698 nM

SMILES: COc1cc(C)c(Cl)cc1S(=O)(=O)n1cnc2c(N3CCNCC3)cccc21 [Example 90, 1-[(5-chloro-2-methoxy-4-methylphenyl)sulfonyl]-4-piperazin-1-yl-1H-benzimidazole]
- Ki: 12.9 nM

SMILES: COc1ccc(Br)cc1S(=O)(=O)n1cnc2c(N3CCNCC3)cccc21 [Example 66, 1-[(5-bromo-2-methoxyphenyl)sulfonyl]-4-piperazin-1-yl-1H-benzimidazole]
- Ki: 4.93 nM

SMILES: C[C@H]1CN(c2cccc3c2ncn3S(=O)(=O)c2cccc(Cl)c2)CCN1 [Example 80, 1-[(3-chlorophenyl)sulfonyl]-4-[(3S)-3-methylpiperazin-1-yl]-1H-benzimidazole]
- Ki: 0.483 nM

SMILES: CC1CN(c2cccc3c2ncn3S(=O)(=O)c2ccccc2Cl)CCN1 (centres unmarked) [Example 53, 1-[(2-chlorophenyl)sulfonyl]-4-(3-methylpiperazin-1-yl)-1H-benzimidazole]
- Ki: 1.34 nM

SMILES: COc1cc(C)ccc1S(=O)(=O)n1cnc2c(N3CCNCC3)cccc21 [Example 69, 1-[(2-methoxy-4-methylphenyl)sulfonyl]-4-piperazin-1-yl-1H-benzimidazole]
- Ki: 2.15 nM

SMILES: Cc1nc2c(N3CCN[C@@H](C)C3)cccc2n1S(=O)(=O)c1cccc2c(Cl)cccc12 [Example 126, 1-[(5-chloro-1-naphthyl)sulfonyl]-2-methyl-4-[(3S)-3-methylpiperazin-1-yl]-1H-benzimidazole]
- Ki: 1.05 nM

SMILES: COc1c(F)cccc1S(=O)(=O)n1cnc2c(N3CCNCC3)cccc21 [Example 74, 1-[(3-fluoro-2-methoxyphenyl)sulfonyl]-4-piperazin-1-yl-1H-benzimidazole]
- Ki: 0.485 nM

SMILES: O=S(=O)(c1ccc(OC(F)(F)F)cc1)n1cnc2c(N3CCNCC3)cccc21 [Example 25, 4-piperazin-1-yl-1-{[4-(trifluoromethoxy)phenyl]sulfonyl}-1H-benzimidazole]
- Ki: 89 nM

SMILES: C[C@@H]1CN(c2cccc3c2ncn3S(=O)(=O)c2ccccc2Cl)CCN1 [Example 75, 1-[(2-chlorophenyl)sulfonyl]-4-[(3R)-3-methylpiperazin-1-yl]-1H-benzimidazole]
- Ki: 1.19 nM

SMILES: Cc1nc2c(N3C[C@@H]4C[C@H]3CN4)cccc2n1S(=O)(=O)c1cccc(F)c1 [Example 112, 4-[(1S,4S)-2,5-diazabicyclo[2.2.1]hept-2-yl]-1-[(3-fluorophenyl)sulfonyl]-2-methyl-1H-benzimidazole]
- Ki: 39.9 nM

SMILES: COc1ccccc1S(=O)(=O)n1cnc2c(N3CCNCC3)cccc21 [Example 44, 1-[(2-methoxyphenyl)sulfonyl]-4-piperazin-1-yl-1H-benzimidazole]
- Ki: 0.156 nM

SMILES: Cc1nc2c(N3CCNCC3)cccc2n1S(=O)(=O)c1ccc(Cl)cc1 [Example 17, 1-[(4-chlorophenyl)sulfonyl]-2-methyl-4-piperazin-1-yl-1H-benzimidazole]
- Ki: 6 nM

SMILES: C[C@H]1CN(c2cccc3c2ncn3S(=O)(=O)c2ccccc2Cl)CCN1 [Example 79, 1-[(2-chlorophenyl)sulfonyl]-4-[(3S)-3-methylpiperazin-1-yl]-1H-benzimidazole]
- Ki: 0.282 nM

SMILES: CC(C)C1CN(c2cccc3c2ncn3S(=O)(=O)c2cccc3ccccc23)CCN1 (centres unmarked) [Example 121, 4-(3-isopropylpiperazin-1-yl)-1-(1-naphthylsulfonyl)-1H-benzimidazole]
- Ki: 0.952 nM

SMILES: Cc1nc2c(N3CCNCC3)cccc2n1S(=O)(=O)c1ccc(F)cc1 [Example 38, 1-[(4-fluorophenyl)sulfonyl]-2-methyl-4-piperazin-1-yl-1H-benzimidazole]
- Ki: 10.5 nM

SMILES: Cc1nc2c(N3CCNCC3)cccc2n1S(=O)(=O)c1ccccc1Cl [Example 15, 1-[(2-chlorophenyl)sulfonyl]-2-methyl-4-piperazin-1-yl-1H-benzimidazole]
- Ki: 0.99 nM

SMILES: O=S(=O)(c1cccc(F)c1)n1cnc2c(N3C[C@@H]4C[C@H]3CN4)cccc21 [Example 107, 4-[(1S,4S)-2,5-diazabicyclo[2.2.1]hept-2-yl]-1-[(3-fluorophenyl)sulfonyl]-1H-benzimidazole]
- Ki: 22.1 nM

SMILES: Cc1c(Cl)cccc1S(=O)(=O)n1cnc2c(N3CCN[C@H](C)C3)cccc21 [Example 77, 1-[(3-chloro-2-methylphenyl)sulfonyl]-4-[(3R)-3-methylpiperazin-1-yl]-1H-benzimidazole]
- Ki: 1.2 nM

SMILES: COc1cccc(S(=O)(=O)n2c(C)nc3c(N4CCNCC4)cccc32)c1 [Example 45, 1-[(3-methoxyphenyl)sulfonyl]-2-methyl-4-piperazin-1-yl-1H-benzimidazole]
- Ki: 2.07 nM

SMILES: CCc1nc2c(N3CCNCC3)cccc2n1S(=O)(=O)c1ccccc1 [Example 6, 2-ethyl-1-(phenylsulfonyl)-4-piperazin-1-yl-1H-benzimidazole]
- Ki: 0.447 nM

SMILES: CC(C)c1nc2c(N3CCNCC3)cccc2n1S(=O)(=O)c1ccccc1OC(F)(F)F [Example 63, 2-(1-methylethyl)-4-piperazin-1-yl-1-{[2-(trifluoromethoxy)phenyl]sulfonyl}-1H-benzimidazole]
- Ki: 1.14 nM

SMILES: O=S(=O)(c1ccccc1F)n1cnc2c(N3CCNCC3)cccc21 [Example 21, 1-[(2-fluorophenyl)sulfonyl]-4-piperazin-1-yl-1H-benzimidazole]
- Ki: 3 nM

SMILES: O=S(=O)(c1cccc2ccccc12)n1cnc2c(N3CCNCC3)cc(F)cc21 [Example 101, 6-fluoro-1-(naphthalen-1-ylsulfonyl)-4-piperazin-1-yl-1H-benzimidazole]
- Ki: 1.33 nM

SMILES: Cc1c(Cl)cccc1S(=O)(=O)n1cnc2c(N3CCNC(C)C3)cccc21 (centres unmarked) [Example 58, 1-[(3-chloro-2-methylphenyl)sulfonyl]-4-(3-methylpiperazin-1-yl)-1H-benzimidazole]
- Ki: 1.73 nM

SMILES: Cc1ccccc1S(=O)(=O)n1cnc2c(N3CCNCC3)cccc21 [Example 39, 1-[(2-methylphenyl)sulfonyl]-4-piperazin-1-yl-1H-benzimidazole]
- Ki: 1.15 nM

SMILES: O=S(=O)(c1ccc(F)cc1)n1cnc2c(N3CCNCC3)cccc21 [Example 20, 1-[(4-fluorophenyl)sulfonyl]-4-piperazin-1-yl-1H-benzimidazole]
- Ki: 25 nM

SMILES: CC1CN(c2cccc3c2ncn3S(=O)(=O)c2ccccc2)CCN1 (centres unmarked) [Example 128, 4-(3-methylpiperazin-1-yl)-1-(phenylsulfonyl)-1H-benzimidazole]
- Ki: 0.931 nM

SMILES: COc1cccc(S(=O)(=O)n2cnc3c(N4CCNCC4)cccc32)c1 [Example 34, 1-[(3-methoxyphenyl)sulfonyl]-4-piperazin-1-yl-1H-benzimidazole]
- Ki: 1.2 nM

SMILES: Cc1ccc(S(=O)(=O)n2c(C)nc3c(N4CCNCC4)cccc32)c2ccccc12 [Example 51, 2-methyl-1-[(4-methyl-1-naphthyl)sulfonyl]-4-piperazin-1-yl-1H-benzimidazole]
- Ki: 6.27 nM

SMILES: Cc1nc2c(N3C[C@@H]4C[C@H]3CN4)cccc2n1S(=O)(=O)c1ccccc1Cl [Example 111, 1-[(2-chlorophenyl)sulfonyl]-4-[(1S,4S)-2,5-diazabicyclo[2.2.1]hept-2-yl]-2-methyl-1H-benzimidazole]
- Ki: 21 nM

SMILES: Cc1c(Cl)cccc1S(=O)(=O)n1cnc2c(N3CCN[C@@H](C)C3)cccc21 [Example 82, 1-[(3-chloro-2-methylphenyl)sulfonyl]-4-[(3S)-3-methylpiperazin-1-yl]-1H-benzimidazole]
- Ki: 0.21 nM

SMILES: Cc1nc2c(N3CCNCC3)cccc2n1S(=O)(=O)c1cccc(C(F)(F)F)c1 [Example 49, 2-methyl-4-piperazin-1-yl-1-{[3-(trifluoromethyl)phenyl]sulfonyl}-1H-benzimidazole]
- Ki: 0.982 nM

SMILES: Cc1nc2c(N3CCNCC3)cccc2n1S(=O)(=O)c1ccc2ccccc2c1 [Example 43, 2-methyl-1-(2-naphthylsulfonyl)-4-piperazin-1-yl-1H-benzimidazole]
- Ki: 1.05 nM

SMILES: Cc1nc2c(N3CCNCC3)cccc2n1S(=O)(=O)c1ccccc1F [Example 32, 1-[(2-fluorophenyl)sulfonyl]-2-methyl-4-piperazin-1-yl-1H-benzimidazole]
- Ki: 2.5 nM

SMILES: COc1ccc(C)cc1S(=O)(=O)n1cnc2c(N3CCNCC3)cccc21 [Example 68, 1-[(2-methoxy-5-methylphenyl)sulfonyl]-4-piperazin-1-yl-1H-benzimidazole]
- Ki: 0.498 nM

— patent US8063053B2, “1-(arylsulfonyl)-4-(piperazin-1-yl)-1H-benzimidazoles as 5-hydroxytryptamine-6 ligands” (Wyeth LLC, priority 2008, dated 2011)
